Measurements reported in US20200000871A1, “B-1A LYMPHOCYTE AND/OR MACROPHAGE TARGETING AND ACTIVATION TO TREAT MEDICAL CONDITIONS WITH INFLAMMATORY OR AUTOIMMUNE COMPONENTS” (THE BOARD OF TRUSTEES OF THE LELAND STANFORD JUNIOR …, priority 2015, published 2020).
Where no end group is shown, it is not given here.

Key:
peritoneal cells = assay: Viability of peritoneal cells incubated in vitro with fibrils; format: cell-based, C57BL/6 mice; settings: 1.0-0.125 μg/well, 30 or 120 minutes, PI staining
Experimental: FIG. 3. […] Peritoneal cells were isolated by lavage of C57BL/6 mice, aliquoted 500,000 cells per well of a 96 well round bottomed plate and treated with 1.0, 0.5, 0.25, 0.125 μg/well of Amylin 28-33 for 30 minutes or 120 minutes in DMEM with 10% FCS. At the end of the incubation the cells were spun, supernatant aspirated, and the cells were stained with rat anti-mouse CD11b (Pacific Blue), CD5 (PE), CD19 (APC), and incubated for 30 minutes on ice. The cells were washed once, aspirate transferred to FACS tubes, PI added, and analyzed by flow cytometry.

[1] = test system: peritoneal cells (B-1a and B-2 lymphocytes, LPMs, T lymphocytes, mast cells); assay: Binding and endocytosis of FITC-Tau fibrils by peritoneal cells after i.p. injection (confocal microscopy, flow cytometry); format: in vivo, C57BL/6 mice; settings: 10 μg i.p., peritoneal cells stained for CD19 and F4/80
Experimental: C57B/6 female mice were injected with FITC-Tau 623-628, and peritoneal cells were isolated after 10 minutes, washed, stained with rat antimouse CD19 (PE), F4/80 (Alexa Fluor 647), and DAPI, washed, and plated on polylysine coated microscope slides. Cells were visualized using a Leica TCS SP8 white light laser confocal microscope.
Peptides were synthesized using solid phase techniques and commercially available Fmoc amino acids, resins, and reagents (PE Biosystems, Foster City Calif., and Bache, Torrance, Calif.) on an Applied Biosystems 433A peptide synthesizer as previously described. Wender et al. (2000) Proc. Natl. Acad. Sci. USA 97(24):13003-13008. […] The molecular weight of the peptides was confirmed using matrix assisted laser desorption mass spectrometry. To prevent excess amounts of fluorophore in the fibrils, Tau 623-628 was mixed at a ratio of 10:1 with an analog with FITC attached to the amino terminus of Tau 623-628 with an amino caproic acid linker. The resulting fibril mixture is referred to in the text as FITC-Tau.
Peritoneal cavity cells were obtained by flushing the peritoneal cavity with 10 ml of cold PBS containing 0.1% bovine serum albumin and 5 mM EDTA. […]

μMT mice with EAE = assay: EAE in B cell-deficient μMT mice, with or without adoptive transfer of B-1a lymphocytes; format: in vivo; settings: 10 μg daily i.p., no cell transfer
Experimental: Induction of active EAE in mice by immunization with MOG and adjuvant. EAE was induced in female wild type C57Bl/6 mice or μMT and IL-10 deficient mice on C57B/6 background (Jackson Laboratories) by procedures previously described. Briefly, EAE was induced at 9 weeks of age by subcutaneous immunization in the flank with an emulsion containing 200 μg myelin oligodendrocyte glycoprotein35-55 (MOG35-55; […] (SEQ ID NO: 1065)) in saline and an equal volume of complete Freund's adjuvant containing […] mycobacterium tuberculosis H37RA (Disco Laboratories). All mice were given 400 ng of pertussis toxin (List Biological) intraperitoneal (i.p.) at 0 and 48 h post-immunization. The signs of neurological impairment were scored as follows: 0, no clinical disease; 1, tail weakness; 2, hindlimb weakness; 3, complete hindlimb paralysis; 4, hindlimb paralysis and some forelimb weakness; 5, moribund or dead. […] For intranasal inoculation, 10 μg of Amylin 28-33 in 10 μl PBS was gradually released into the nostrils of anesthetized mice. All animal protocols were approved by institutional IACUC.
B-1a lymphocytes were purified by cell sorting of peritoneal cells from wild type C57Bl/6 mice. […] Mice were examined daily for clinical signs of EAE and were scored on a five point scale described above.

[2] = test system: B-1a lymphocytes and LPMs; assay: Bioluminescence imaging of trafficking of adoptively transferred luc+ B-1a lymphocytes and LPMs; format: in vivo, C57BL/6 albino mice
Experimental: B-1a lymphocytes and peritoneal MΦs were purified by cell sorting of peritoneal cells isolated from luciferase transgenic mice ((B6.FVB-Ptprca Tg(CAG-luc,-GFP)L2G85Chco Thy1a/J), which express the CAT-luc-eGFP, L2G85 transgene). In the initial experiment 2×10^5 and 1×10^5 B-1a lymphocytes were injected in the peritoneum of C57BL/6 female albino mice (B6(Cg)-Tyr^c-2J/J), followed by injection of 10 μg of Tau 623-628 to activate the lymphocytes, and 0.3 mg/g body weight of luciferin substrate (D luciferin firefly L-8220 Biosynth) to initiate the bioluminescence imaging. The location of the luciferase expressing cells was measured by imaging every 5 minutes for 75 minutes.
To confirm the diminution of luminescence was due to the trafficking of the luc^+ cells, and not the degradation of the luciferin, two C57BL/6 albino mice were injected with […] peritoneal MΦs, a third with 2×10^5 B-1a lymphocytes, and fourth mouse serving as a BLI control was injected with luciferin only. The mice were subsequently injected with 10 μg of Tau 623-628 and 0.3 mg/gram of luciferin. Bioluminescence was measured immediately after the injection of luciferin and 5 minutes later. After thirty minutes the mice were reinjected with luciferin and the resultant luminescence measured. […] Imaging data were analyzed and quantified with Living Image software 4.4 (Xenogen).
Amyloidogenic peptides induce exodus of B-1a lymphocytes and LPM from the peritoneal cavity. […] The location of the luciferase expressing cells was monitored by imaging the mice every 5 minutes for 75 minutes (FIG. 5, top left). The diffuse distribution of the luminescence, corresponding to the peritoneal cavity, seen at early times, was reduced in intensity over time, with focal regions of intensity appearing to localize in inguinal lymph nodes beginning at 35 minutes (FIG. 5, top left). […]
To better assign the basis of the reduction of luminescence to the migration of the luc^+ cells, a second experiment was performed with four recipient mice. […] Bioluminescence was measured immediately after the injection of luciferin and 5 minutes later. […]

[3] = test system: B-1a lymphocytes and peritoneal MΦs (SPM, LPM); assay: Differential gene expression (microarray, qPCR) in sorted B-1a lymphocytes and peritoneal MΦs after i.p. injection; format: in vivo, C57BL/6 mice; settings: 10 μg i.p., cells isolated 30-40 minutes after injection
Experimental: Total RNA was extracted from FACS purified B-1a lymphocytes and peritoneal MΦs pooled from 3-6 C57BL/6 female mice injected with 10 μg of LPS, Tau 623-628, Amylin 28-33, or PBS using Trizol reagent and the Qiagen RNeasy micro kit. First strand cDNA was synthesized with 30-50 ng of total RNA using Superscript III first strand synthesis supermix for qRT-PCR. QPCR assays were performed using the 7900HT Fast Real Time PCR System (Applied Biosystems), and the Taqman Gene Expression Arrays (Applied Biosystems) using commercially available primers (ABI). All assays were performed according to manufacturer's instructions. The comparative Ct method for relative quantification (ΔΔCt) was used to compare gene expression. […]
Gene expression changes associated with treatment with LPS, Amylin 28-33, and Tau 623-628, were quantified using a microarray (SurePrint G3 Mouse; Agilent Technologies). […] Analysis and quantitation of the data were done using GeneSpring and Ingenuity software.
To confirm and increase the understanding of how the fibrils are activating the peritoneal cells, differential gene induction in purified B-1a and LPMs was analyzed. […] B-1a lymphocytes (CD19^hiCD5^+CD23^−) and LPMs (CD11b^hi MΦs) from the four groups of three mice were sorted into Trizol, RNA extracted, and gene expression measured using a murine Agilent whole genome expression microchip. […]

PBMCs = assay: Type 1 IFN response and cytokine production in PBMCs of treated mice; settings: mouse, in vivo

Row | Substance | cell viability / cell death of peritoneal cells in vitro (peritoneal cells) | binding and endocytosis of fibrils by B cells and MΦs (confocal microscopy) [1] | therapeutic effect on paralytic signs of EAE in μMT mice (μMT mice with EAE) | increase in luminescence over inguinal lymph nodes ([2]; 60 min compared with 5 min, luc+ LPMs, 10 μg i.p.) [fold] | time at which focal luminescence begins to localize in inguinal lymph nodes ([2]; luc+ B-1a lymphocytes, 10 μg i.p.) [min] | photons per second in the abdominal region ([2]; luc+ B-1a lymphocytes, over 75 minutes) | pattern of gene expression (microarray heatmap) [3] | type 1 IFN induction (PBMCs)
1 | SSTNVG [Amylin 28-33, SSTNVG] | does not affect cell viability | – | – | – | – | – | – | –
2 | VQIVYK [Tau 623-628, amyloidogenic hexapeptide of tau, forms amyloid fibrils] | – | bind and are endocytosed | neither Tau 623-628, nor Amylin 28-33 was therapeutic | ~10 | 35 | rapid, dose dependent, reduction of light emitted | induce a different pattern of gene expression than LPS | induced a type 1 interferon (IFN) response
